Measurements as given in US20120010178A1, “METHODS AND COMPOUNDS FOR TREATMENT OF NEURODEGENERATIVE DISORDERS” (PRESIDENT AND FELLOWS OF HARVARD COLLEGE, priority 2008, published 2012).
Entries after “also recorded” stand apart in the source; their conditions may differ.

Assays:
[1] = test system: SMN; assay: SMN immunofluorescence quantification (cytoplasm, nucleus, GEMs) in fibroblasts from SMA patients; assay type: cell-based, human; settings: for levels of cytoplasmic and nuclear SMN (in words) / fold increase in nuclear SMN / fold increase in cytoplasmic SMN: SMA patient fibroblasts; for levels of cytoplasmic and nuclear SMN (in words): substance alone
Procedure: Specifically, fibroblasts from patients suffering from SMA were treated with Ionomycin (a channel modulator), Ouabain (a cardiac glycoside and channel modulator), PDGF, SAHA (an HDAC inhibitor), Lactacystin (a proteasome inhibitor) or WIN 55,212-2 (a cannabinoid receptor […] and GPCR ligand) for 72 hours. The cells were fixed with methanol/acetone and stained with Pharmingen BD antibodies, followed by 488 AlexaFluor staining. Images were obtained with 60× lens on Zeiss LSM510 META on an inverted confocal microscope.
For example, fibroblasts from patients suffering from SMA were treated with Ouabain, Digoxin or Lanatoside at a concentration of 0, 2.5 nM, 5 nM, 10 nM, 20 nM, 40 nM, 80 nM, […] for 72 hours. The cells were fixed with methanol/acetone and stained with Pharmingen BD antibodies, followed by 488 AlexaFluor staining. Images were obtained with 60× lens on Zeiss LSM510 META on an inverted confocal microscope.
An assay was established for high-content evaluation of SMN protein level in different cellular compartments after treatment with small molecules. SMN protein was visualized by immunofluorescent staining and multiple fields from each plate well were scanned by an automated confocal Opera microscope. […] For each well, the algorithm generated quantitative parameters representing number of cells, as well as SMN fluorescent intensity per cell in cytoplasm, nucleus, number and intensity of GEMs (FIG. 15). […] During the assay transfer to the robotic platform fixation with the ice cold methanol was technically limited, therefore to preserve the maximum possible window we chose to perform the screen on parental fibroblast with PFA fixation.
For fibroblast assays, human fibroblasts lines GM09677 (derived from patient with SMA type 1 disease) and GM03814 (derived from unaffected parental SMA carriers) were used (Coriell Cell Repositories). […] For secondary assays cells from GM09677 line were used.
Fibroblasts were grown in MEM media (Invitrogen) supplemented with 5% Fetal Bovine Serum (FBS, Invitrogen), 2 mM glutamine and 1% penicillin-streptomycin (100 U/ml) in a presence of 5% CO2 at 37° C. For drug treatments, cells were plated and treated 24 h later with 10 μM MG132 (Biomol International), […] Calpeptin (Biomol International), 10 mM ammonium chloride, 1 μM myristoylated PKI, or vehicle for the designated times.
(§1) Compounds were stored at appropriate temperature and dissolved accordingly to the manufacturers (Tocris, Enzo, EMD and Sigma-Aldrich) in DMSO (Sigma-Aldrich), unless stated otherwise (Monensin Na in EtOH, DMPQ in water). Growth factors and PDGF neutralizing antibodies (R&D Systems) were reconstituted with buffers recommended by the supplier. For generation of the dose curves, 1×10^3 fibroblasts were plated on to 96-well Greiner Senso plates (VWR) and treated with compounds on the second day then fixed and stained at the indicated time points. For GSK inhibitors and performing p-GSK3b(Ser9) detection, two days after plating growth media containing 5% FBS was replaced to the media with FBS reduced down to 0.5%, to starve cells for 72 hours. Addition of the GSK inhibitors was done in 5% FBS enriched media.

[2] = test system: SMN; assay: High-content fibroblast screen for compounds that modulate SMN level; settings: for SMN level in fibroblast screen (increase or decrease): human fibroblasts, 2-3 days with compound;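 on all read-outs here: Anti-SMN immunostaining with confocal imaging of nuclear and cytoplasmic SMN and gem counts, tested at 0.1, 1 and 10 uM, fold change relative to negative control wells on each plate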
Procedure: Human fibroblasts were incubated for 2-3 days with compounds from annotated collections. Cells were fixed and stained with an anti-SMN antibody. Confocal imaging was used to quantify SMN fluorescence in nucleus and cytoplasm and count Gems. Data were collected and subsequently analyzed by clustering compounds by suspected mechanism of action and chemical structure.
Following optimization of assay conditions on day 0, total of 500 human fibroblasts (GM09677 line) per well were seeded in 384-well plates, on day 3 they were treated with compounds (robot CyBio) from the annotated collections and on the 5 day plates were fixed and stained (robot MAPD) with an anti-SMN antibody and secondary antibody conjugated with 448 fluorophore (FIG. 19a). Compounds from the libraries were added in duplicate at three final concentrations of 10, 1 and 0.1 uM.
SMN detection was done on the automated confocal microscope Opera PerkinElmer with separate fluorescent exposures to 488 nM laser for and a UV light source to detect nuclei stained with Hoechst 33258 with a 20× objective.
After scanning on the Opera, an XML file extraction workflow, designed with Inforsense KDE, was used to assemble the data from multiple replicate plates of each HCS experiment including the quantitative parameters described above and chemical identities, chemical concentrations and indications of which wells were used for positive and negative controls. […] The fold-induction of SMN intensity values for each well treated with a library chemical were normalized to the SMN average intensity in multiple negative control wells per plate.
Since it is not known which form of SMN increase is the most essential, hits that scored in a duplicate at least in two different parameters greater than 1.3 fold at any of the three concentrations were selected (FIG. 19d). […] Further, 220 compounds were screened in the absence of anti-SMN primary antibody with the same assay conditions, to filter out the fluorescent compounds.

[3] = test system: SMN; assay: Inhibition of PDGF-stimulated SMN increase in fibroblasts by kinase/receptor inhibitors; assay type: cell-based, human; settings: SMA patient fibroblasts, PDGF plus inhibitor or neutralizing antibody
Procedure: Fibroblasts from patients suffering from SMA were treated with PDGF at a concentration of 0, 0.3 ng/ml, 0.63 ng/ml, 1.25 ng/ml, 2.5 ng/ml, 5 ng/ml, 10 ng/ml or 20 ng/ml, in the absence or in the presence of 25 uM DMPQ or 25 uM AG-1296 respectively for 72 hours. The levels of both cytoplasmic and nuclear SMN were detected and quantified using the method described in Example 2.
(§2) Fibroblasts from patients suffering from SMA were either control treated or treated with PDGF at a concentration of 0, 0.63 ng/ml, 1.25 ng/ml, 2.5 ng/ml, 5 ng/ml, 10 ng/ml or 20 ng/ml, in the absence or in the presence of 50 uM LY294002 or 2 uM P1-103 respectively for 72 hours. The levels of both cytoplasmic and nuclear SMN were detected and quantified using the method described in Example 2.
as §2, with “of” for “of 50 uM LY294002 or”, “uM Papamycin” for “uM P1-103 respectively”, “Example x.” for “Example 2.”
A range of concentrations were tested in order not to miss the effects. SMN level were evaluated by Opera Evoteck in each cellular compartment and to assess the cell numbers that are summarized in the Table 3.
as §1, with “media. As previously described, starvation increases levels of constitutively activate GSK3b kinase, allowing to achieve a more dramatic inhibitory effect when GSK inhibitors are added together with growth factors that are also known to inhibit GSK by Ser-9 phosphorylation. […] For all compounds and growth factors control wells received solvent in amount equivalent to the highest concentration of the compound in a dose curve. For PDGF inhibitory studies, cells were pre-treated with kinase inhibitors for 2 hours and PDGF was added with a fresh kinase inhibitor solution and incubated for an additional 3 days.” for “media.”

Compound	levels of cytoplasmic and nuclear SMN (in words) [1]	SMN level in fibroblast screen (increase or decrease) [2]	other results
CNc1ccc2oc(C[C@H]3O[C@@]4(CC[C@H]3C)O[C@H]([C@H](C)C(=O)c3ccc[nH]3)[C@H](C)C[C@H]4C)nc2c1C(=O)O [Calcimycin]	elevation of SMN levels; also recorded: active in elevating the levels of SMN; also recorded: generally active	increase SMN	levels of cytoplasmic and nuclear SMN (in words) ([1]; listed as A23187): active
Oc1cccc(-c2nc(N3CCOCC3)c3oc4ncccc4c3n2)c1 [PI-103]	–	decreased SMN	PDGF-stimulated SMN increase in presence of inhibitor (in words) [3]: PDGF does not increase the levels of SMN; also recorded: able to prevent PDGF induced SMN increase in all cellular compartments; also recorded: completely abolished; PDGF-stimulated SMN increase in presence of inhibitor (in words) ([3]; listed as P1-103): abrogated
COc1cc2ncc(-c3ccccc3)nc2cc1OC [AG-1296]	–	decreased SMN	decrease of basal level of SMN ([1]; added to the regular serum media in which cells are maintained, no added PDGF): 20%; PDGF-stimulated SMN increase in presence of inhibitor (in words) [3]: sufficient to prevent PDGF effect on SMN; also recorded: abrogated; PDGF-stimulated SMN increase in presence of inhibitor (in words) ([3]; listed as AG-1236): blocked; also recorded: abolished
CC[C@@]1([C@@H]2O[C@@H]([C@H]3O[C@@](O)(CO)[C@H](C)C[C@@H]3C)C[C@@H]2C)CC[C@H]([C@]2(C)CC[C@]3(C[C@H](O)[C@@H](C)[C@@H]([C@@H](C)[C@@H](OC)[C@H](C)C(=O)O)O3)O2)O1 [Monensin Na]	–	increase SMN	fold increase in nuclear SMN [1]: 2 fold
C/C=C(/C)C(=O)O[C@H]1C(C)=C2[C@H]([C@@H]1OC(=O)CCCCCCC)[C@@](C)(OC(C)=O)C[C@H](OC(=O)CCC)[C@@]1(O)[C@H]2OC(=O)[C@@]1(C)O [Thapsigargin]	active in elevating the levels of SMN; also recorded: generally active; also recorded: caused SMN upregulation	increase SMN	levels of cytoplasmic and nuclear SMN (in words) ([1]; listed as thapsigagin): elevation of SMN levels
N#CCCc1ccc2c(c1)-c1[nH]c3ccc([N+](=O)[O-])cc3c1CC(=O)N2	able to elevate SMN in patient fibroblasts	SMN is increase	–
C[C@H](CCC(=O)O)C[C@H](C)C[C@H](C)C(=O)/C=C(\O)[C@H](C)C[C@H](C)C/C=C/[C@@H](C)[C@@H](O)[C@@H](C)[C@@H](O)C[C@@H]1CC[C@@](C)([C@H]2CC[C@@](C)([C@@H](C)O)O2)O1 [Ionomycin]	increase in SMN levels; also recorded: active in elevating the levels of SMN; also recorded: able to increase SMN level	increase SMN	levels of cytoplasmic and nuclear SMN (in words) ([1]; listed as ionomycin): elevation of SMN levels; also recorded: active
C[C@H]1O[C@@H](O[C@H]2[C@@H](O)C[C@H](O[C@H]3[C@@H](O)C[C@H](O[C@H]4CC[C@@]5(C)[C@H](CC[C@@H]6[C@@H]5C[C@@H](O)[C@]5(C)[C@@H](C7=CC(=O)OC7)CC[C@]65O)C4)O[C@@H]3C)O[C@@H]2C)C[C@H](O)[C@@H]1O [Digoxin]	–	increase SMN	–
Coumermycin A1	–	increase SMN	concentration at which SMN level was increased ([2]; during screening): 10 µM
O=C1Nc2ccc3ncsc3c2/C1=C/Nc1ccc(S(=O)(=O)Nc2ccccn2)cc1 [GW8510]	–	SMN is increase	–
CC(=O)N[C@@H](CSC(=O)[C@]1([C@@H](O)C(C)C)NC(=O)[C@H](C)[C@@H]1O)C(=O)O [Lactacystin]	increase in SMN levels	increase SMN	effect on GEMs (number / intensity, in words) ([1]; fibroblasts): mostly affected GEMs
O=C1Nc2ccc3ncsc3c2C1=Cc1cnc[nH]1 [PKR inhibitor, 6,8-Dihydro-8-(1H-imidazol-5-ylmethylene)-7H-pyrrolo[2,3-g]benzothiazol-7-one]	–	SMN is increase	fold increase in cytoplasmic SMN [1]: 2 fold; fold increase in nuclear SMN [1]: 1.5 fold
Cc1c(C(=O)c2cccc3ccccc23)c2cccc3c2n1[C@H](CN1CCOCC1)CO3 [WIN 55, 212-2]	increase in SMN levels	increase SMN	fold increase in cytoplasmic SMN [1]: 1.5 fold; fold increase in nuclear SMN [1]: 2 fold
Clc1ccc2ncnc(NCc3ccc4c(c3)OCO4)c2c1 [MBCQ]	–	increase SMN	–
ceramide	–	increase SMN	–
O=C(CCCCCCC(=O)Nc1ccccc1)NO [SAHA, Suberoylanilide Hydroxamic Acid]	increase in SMN levels	increase SMN	effect on GEMs (number / intensity, in words) ([1]; fibroblasts): increased GEM counts at the lower concentrations; nuclear SMN at the higher dosage (in words) ([1]; fibroblasts, higher dosage): increased nuclear SMN predominantly
CC(=O)O[C@H]1C[C@H](O[C@H]2[C@@H](O)C[C@H](O[C@H]3[C@@H](O)C[C@H](O[C@H]4CC[C@@]5(C)[C@H](CC[C@@H]6[C@@H]5C[C@@H](O)[C@]5(C)[C@@H](C7=CC(=O)OC7)CC[C@]65O)C4)O[C@@H]3C)O[C@@H]2C)O[C@H](C)[C@H]1O[C@@H]1O[C@H](CO)[C@@H](O)[C@H](O)[C@H]1O [Lanatoside C]	–	increase SMN	–
C[C@@H]1O[C@@H](O[C@H]2C[C@@H](O)[C@]3(CO)[C@H]4[C@H](O)C[C@]5(C)[C@@H](C6=CC(=O)OC6)CC[C@]5(O)[C@@H]4CC[C@]3(O)C2)[C@H](O)[C@H](O)[C@H]1O [Ouabain]	increase in SMN levels	increase SMN	SMN level in fibroblast screen (increase or decrease) ([2]; listed as ouabain): consistently emerged as hits
